Test results published in patent publication US20240025903A1, “Bicyclic Compounds and Uses Thereof for the Treatment of Diseases” (Athira Pharma, Inc., priority 2020, published 2024).

What was measured:
[1] = target: T1, HGF/MET system (Homo sapiens, UniProt P08581+P14210); assay: Phospho-MET ELISA; type: cell-based; design: key: − indicates that the compound failed to significantly augment MET phosphorylation; + indicates maximum potency at or above 100 nM; ++ indicates maximum potency at or above 10 nM; +++ indicates maximum potency at or above 1 nM; ++++ indicates maximum potency at or above 0.1 nM; settings: HEK293 cells, 1 ng/mL recombinant HGF, 15 minutes, pMET ELISA
T1 construct: HEK293 cells were prepared by passage into 6-well multi-plates; endogenous in cells; host or cells: HEK293
T1 sequence (P08581 308-1390 limits assumed): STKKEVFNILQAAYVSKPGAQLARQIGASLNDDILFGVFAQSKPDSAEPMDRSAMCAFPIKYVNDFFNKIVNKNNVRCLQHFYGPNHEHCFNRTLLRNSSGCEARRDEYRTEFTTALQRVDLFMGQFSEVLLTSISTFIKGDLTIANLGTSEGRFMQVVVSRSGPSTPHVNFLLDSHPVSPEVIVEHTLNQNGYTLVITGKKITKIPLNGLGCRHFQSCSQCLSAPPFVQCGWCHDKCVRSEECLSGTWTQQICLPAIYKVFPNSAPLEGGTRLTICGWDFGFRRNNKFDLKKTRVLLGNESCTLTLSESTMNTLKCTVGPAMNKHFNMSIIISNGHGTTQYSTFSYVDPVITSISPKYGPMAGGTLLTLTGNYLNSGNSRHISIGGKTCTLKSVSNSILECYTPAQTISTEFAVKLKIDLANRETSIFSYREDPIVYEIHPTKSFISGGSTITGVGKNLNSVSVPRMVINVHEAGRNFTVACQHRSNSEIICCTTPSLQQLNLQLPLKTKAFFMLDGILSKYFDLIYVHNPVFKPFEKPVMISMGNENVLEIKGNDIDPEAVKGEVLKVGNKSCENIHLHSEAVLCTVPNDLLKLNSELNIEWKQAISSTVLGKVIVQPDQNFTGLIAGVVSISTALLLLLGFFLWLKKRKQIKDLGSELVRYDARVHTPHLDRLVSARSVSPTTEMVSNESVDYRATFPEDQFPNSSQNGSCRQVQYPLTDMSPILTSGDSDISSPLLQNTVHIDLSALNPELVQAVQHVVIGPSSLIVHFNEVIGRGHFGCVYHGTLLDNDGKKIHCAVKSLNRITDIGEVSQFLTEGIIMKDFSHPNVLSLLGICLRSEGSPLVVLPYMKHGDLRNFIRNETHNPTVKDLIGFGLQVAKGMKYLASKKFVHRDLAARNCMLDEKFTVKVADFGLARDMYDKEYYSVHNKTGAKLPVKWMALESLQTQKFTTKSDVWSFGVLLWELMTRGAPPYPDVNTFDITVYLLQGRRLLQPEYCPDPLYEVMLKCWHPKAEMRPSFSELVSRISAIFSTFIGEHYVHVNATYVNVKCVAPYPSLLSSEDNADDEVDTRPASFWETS
T1 sequence (P14210 32-494 limits assumed): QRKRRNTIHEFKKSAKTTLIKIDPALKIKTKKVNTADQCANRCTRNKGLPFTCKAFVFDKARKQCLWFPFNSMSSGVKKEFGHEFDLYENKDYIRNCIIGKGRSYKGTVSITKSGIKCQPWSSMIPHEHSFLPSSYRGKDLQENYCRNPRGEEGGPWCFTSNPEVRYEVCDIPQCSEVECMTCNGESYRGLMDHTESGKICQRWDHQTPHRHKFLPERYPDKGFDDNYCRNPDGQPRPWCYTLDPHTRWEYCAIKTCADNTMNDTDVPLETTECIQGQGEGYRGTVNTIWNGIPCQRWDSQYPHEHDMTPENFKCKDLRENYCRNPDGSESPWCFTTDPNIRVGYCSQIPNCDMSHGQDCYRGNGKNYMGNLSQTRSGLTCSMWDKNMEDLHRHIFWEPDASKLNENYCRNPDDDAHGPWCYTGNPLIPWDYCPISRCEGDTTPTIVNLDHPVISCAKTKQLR
Method: Compounds were screened for potency towards the HGF/MET system using phospho-MET (pMET) ELISA kits (Cell Signaling). pMET levels were detected in samples having low (1 ng/mL) and high (10 ng/mL) concentrations of HGF.
HEK293 cells were prepared by passage into 6-well multi-plates and grown at 37° C. at 5% CO2 in DMEM+10% FBS until approximately 90% confluent. Cells were then starved for at least 8 hours in serum-free growth media.
Exemplary compounds were prepared in DMEM+0.1% FBS, diluted and added to treatment media with 1 ng/mL recombinant HGF protein (R&D Systems). Cells were incubated in triplicate at 37° C. and 5% CO2 for 15 minutes. Samples were then treated with 180 μL ice-cold RIPA (radioimmunoprecipitation assay) buffer and cells were lysed on ice for 15 minutes. Lysates were cleared by centrifugation at 16,000-g for 15 minutes and the supernatant was retained. Samples were normalized using a BCA assay of lysates to determine protein concentrations across the samples.
Between 50 and 100 μg total protein lysate was loaded into ELISA wells in pMET Sandwich ELISA kit (Cell Signaling Catalog #7227C), ensuring equal protein load in each well. The ELISA was processed according to manufacturer's instructions. After color developed, absorbance was read on an optical plate reader at 450 nm.
Potency measurements were determined using peak efficacy by scaling test compound dose treatments along a scale of 1-10 between 1 ng/mL and 10 ng/mL HGF doses according to the following formula: […]
where y is the normalized data-point, x is the raw data point, A is the mean HGF at 1 ng/mL, and B is the mean HGF at 10 ng/mL.

[2] = test system: MDCK cells; assay: Cell scattering behavior assay; type: cell-based; design: key: − indicates that the compound failed to significantly promote cell scattering behavior; + indicates maximum potency at or above 100 nM; ++ indicates maximum potency at or above 10 nM; +++ indicates maximum potency at or above 1 nM; ++++ indicates maximum potency at or above 0.1 nM; settings: 5 ng/mL HGF, 24 hours, normalized particle count vs HGF alone
Method: MDCK cells were grown under normal conditions and observed to spontaneously form tight colonies as they proliferate. MDCK cells respond to HGF treatment by moving away from each other (scattering), which is quantified to assess the amount of HGF/MET activation in the cell population. In this experiment, MDCK cells were plated in a 96-well format, treated with HGF and exemplary compounds, fluorescently stained, imaged in large fields, and scattering behavior was quantified. Quantification was determined by analyzing the number of continuous groups of cells compared to the total stained area imaged (normalized particle counts).
MDCK cells were plated at low density in black-walled imaging plates and allowed to attach overnight at 37° C. and 5% CO2 in DMEM+10% FBS. Cells were then starved to 2 hours in DMEM without FBS (“starve media”). Samples containing exemplary compounds were prepared in DMEM without FBS and included 5 ng/mL HGF protein (“treatment media”). A control curve was also prepared for each plate using HGF concentrations of 0, 5, 10, and 20 ng/mL. Starve media was replaced with treatment media and cells were incubated for 24 hours at 37° C. and 5% CO2.
After incubation, cells were fixed by replacing treatment media with cold ethanol and incubating for 20 minutes at 4° C. Cells were then rehydrated by washing with PBS and then with stain solution (fluorescent wheat germ agglutinin; WGA488 at 20 μg/mL in PBS). Cells were incubated with stain solution 30 minutes at room temperature after which stain solution was replaced with fresh PBS.
Fields of cells were imaged using an iCyte high content imager in the green wavelength. Images were converted to binary and analyzed for particle size and particle count. For the purpose of analysis, an individual cell touching no other cells or separated colonies of cells were identified as particles, and particle counts were normalized by the total signal area to account for differences in cell number. […] Compound potency was assessed by statistical increase in normalized particle count compared to HGF treatment alone.

[3] = Turbidimetric solubility assay; type: physicochemical; settings: aqueous buffer, kinetic from dmso stock, PBS, 37° C., absorbance 620 nm
Method: Aqueous solubility is a critical drug property that helps to predict bioavailability. Generally, compounds with aqueous solubility <100 μg/ml are poor drugs.
To assess a compound's solubility by turbidity, test compounds were first dissolved in organic solvent (DMSO) at a concentration of 10 mM. This compound solution was then diluted in aqueous solvent (PBS) in a dilution series from […] in a 96-well assay plate. Solutions were incubated at 37° C. for 2 hours.
In wells with test compounds over their solubility limit, the compound will precipitate, effectively blocking the passage of light and thus increasing the absorbance signal of UV light at a wavelength of 620 nm. Compounds were considered insoluble at a tested concentration if turbidity raises the absorbance more than 10% above control reads.

Row | Structure (SMILES) | Potency (augmentation of MET phosphorylation) [1] | solubility at 2 h [3] | Potency (cell scattering) [2]
1 | CC1C(=O)N(CCc2ccco2)CC2N(C(=O)c3ccc(OC(F)F)cc3)CCC(=O)N12 (centres unmarked) [Compound 25] | − | > 300 µM | −
2 | CCC(C)CN1CC2N(Cc3ccc(OC(F)F)cc3)CCC(=O)N2C(CC(N)=O)C1=O (centres unmarked) [Compound 50, 2-(1-(4-(difluoromethoxy)benzyl)-8-(2-methylbutyl)-4,7-dioxooctahydro-2H-pyrazino[1,2-a]pyrimidin-6-yl)acetamide] | − | > 300 µM | −
3 | CCC(C)CN1CC2N(C(=O)c3ccc(Cl)cc3)CCC(=O)N2C(C)C1=O (centres unmarked) [Compound 10, 1-(4-chlorobenzoyl)-6-methyl-8-(2-methylbutyl)hexahydro-4H-pyrazino[1,2-a]pyrimidine-4,7(6H)-dione] | − | > 300 µM | −
4 | CC1C(=O)N(CCS(C)(=O)=O)CC2N(C(=O)c3ccc(OC(F)F)cc3)CCC(=O)N12 (centres unmarked) [Compound 36] | − | > 300 µM | −
5 | CC1C(=O)N(CC2CCCO2)CC2N(C(=O)c3ccc(OC(F)F)cc3)CCC(=O)N12 (centres unmarked) [Compound 27] | − | > 100 µM | 
6 | COCCCN1CC2N(C(=O)c3ccc(OC(F)F)cc3)CCC(=O)N2C(C)C1=O (centres unmarked) [Compound 33] | − | > 300 µM | −
7 | CC1C(=O)N(CCc2ccncc2)CC2N(C(=O)c3ccc(OC(F)F)cc3)CCC(=O)N12 (centres unmarked) [Compound 29] | − | > 300 µM | 

Second part, led by results:

Row | Potency (augmentation of MET phosphorylation) [1] | solubility at 2 h [3] | Structure (SMILES) | Potency (cell scattering) [2]
8 | − | > 300 µM | CC1C(=O)N(CCC2CC2)CC2N(C(=O)c3ccc(OC(F)F)cc3)CCC(=O)N12 (centres unmarked) [Compound 31] | −
9 | − | > 100 µM | CCC(C)CN1CC2N(Cc3ccc(C(F)(F)F)c(Cl)c3)CCC(=O)N2C(C)C1=O (centres unmarked) [Compound 43] | −
10 | − | > 300 µM | CCC(C)CN1CC2N(Cc3ccc(OC(F)F)cc3)CCC(=O)N2C(CF)C1=O (centres unmarked) [Compound 47, 1-(4-(difluoromethoxy)benzyl)-6-(fluoromethyl)-8-(2-methylbutyl)hexahydro-4H-pyrazino[1,2-a]pyrimidine-4,7(6H)-dione] | 
11 | − | > 100 µM | CCC(C)CN1CC2N(Cc3ccc(C(F)(F)F)cc3)CCC(=O)N2C(CF)C1=O (centres unmarked) [Compound 48, 6-(fluoromethyl)-8-(2-methylbutyl)-1-(4-(trifluoromethyl)benzyl)hexahydro-4H-pyrazino[1,2-a]pyrimidine-4,7(6H)-dione] | 
12 | − | > 300 µM | CC1C(=O)N(CCC2CCC2)CC2N(Cc3ccc(F)cc3)CCC(=O)N12 (centres unmarked) [Compound 45, 8-(2-cyclobutylethyl)-1-(4-fluorobenzyl)-6-methylhexahydro-4H-pyrazino[1,2-a]pyrimidine-4,7(6H)-dione] | 
13 | − | > 300 µM | CC1C(=O)N(CCN)CC2N(C(=O)c3ccc(OC(F)F)cc3)CCC(=O)N12 (centres unmarked) [Compound 35, 8-(2-aminoethyl)-1-(4-(difluoromethoxy)benzoyl)-6-methylhexahydro-4H-pyrazino[1,2-a]pyrimidine-4,7(6H)-dione] | −
14 | − | > 100 µM | CC1C(=O)N(CCC2CCCC2)CC2N(Cc3ccc(OC(F)F)cc3)CCC(=O)N12 (centres unmarked) [Compound 38] | 
15 | − | > 300 µM | CC1C(=O)N(CCC2CCC2)CC2N(Cc3ccc(OC(F)F)cc3)CCC(=O)N12 (centres unmarked) [Compound 40] | 
